Laboratory results reported in ChEMBL document CHEMBL3286266, “Development of novel benzomorpholine class of diacylglycerol acyltransferase I inhibitors” (ACS Med Chem Lett, 2014).
≈ marks a conversion by molar mass, not a printed value. Values belong to the compound of their own block, whether it stands above or below them. Calls of active or inactive are those of the source. No cut-off for these calls is given here.

Assays:
Mus musculus [1] = assay: Induction of weight loss in diet-induced obese C57BL/6J mouse assessed as decrease in body weight at 10 mg/kg, po qd measured during 11 day chronic study; format: functional; set-up: scale not given: the % may be the effect or the level left
[2] = Clearance in monkey liver hepatocytes measured per million cells; format: ADME, Macaca mulatta, Hepatocyte; details: rhesus monkey, read-out: CLH
[3] = Cmax in rat at 10 mg/kg, po; format: ADME, organism-based; set-up: dose 10 mg/kg, route oral; details: in vivo
[4] = Cmax in mouse at 1 mg/kg, po; format: ADME, organism-based; set-up: dose 1 mg/kg, route oral; details: in vivo
[5] = Cmax in dog at 2 mg/kg, po; format: ADME, organism-based, Canis lupus familiaris; set-up: dose 2 mg/kg, route oral; details: in vivo
[6] = Cmax in monkey at 3 mg/kg, po; format: ADME, organism-based, Macaca mulatta; set-up: dose 3 mg/kg, route oral; details: rhesus monkey, in vivo
[7] = Half life in rat at 10 mg/kg, po; format: ADME, organism-based; set-up: dose 10 mg/kg, route oral; details: in vivo
[8] = Half life in mouse at 1 mg/kg, po; format: ADME, organism-based; set-up: dose 1 mg/kg, route oral; details: in vivo
[9] = Half life in dog at 2 mg/kg, po; format: ADME, organism-based, Canis lupus familiaris; set-up: dose 2 mg/kg, route oral; details: in vivo
[10] = Half life in monkey at 3 mg/kg, po; format: ADME, organism-based, Macaca mulatta; set-up: dose 3 mg/kg, route oral; details: rhesus monkey, in vivo
[11] = Oral bioavailability in rat at 10 mg/kg; format: ADME, organism-based; details: in vivo
[12] = Oral bioavailability in mouse at 1 mg/kg; format: ADME, organism-based; details: in vivo
[13] = Permeability in human Caco2 cells; format: ADME, cell-based; details: Caco-2, read-out: permeability
[14] = Clearance in rat liver hepatocytes measured per million cells; format: ADME, cell-based, Hepatocyte; details: read-out: CLH
Hepatocyte = assay: Clearance in human liver hepatocytes measured per million cells; format: ADME, cell-based
Mus musculus [15] = assay: Reduction in triglycerides level in mouse at 3 mg/kg, po after 2 hrs by postprandial triglyceride assay; format: functional
[16] = biological target: T1, Diacylglycerol O-acyltransferase 1 (Homo sapiens, UniProt O75907); assay: Inhibition of human DGAT1 expressed in Sf9 insect cells using 1,2-dioleoyl-sn-glycerol and [14C]-palmitoyl-CoA substrate by scintillation counting analysis
T1 sequence (O75907 whole entry): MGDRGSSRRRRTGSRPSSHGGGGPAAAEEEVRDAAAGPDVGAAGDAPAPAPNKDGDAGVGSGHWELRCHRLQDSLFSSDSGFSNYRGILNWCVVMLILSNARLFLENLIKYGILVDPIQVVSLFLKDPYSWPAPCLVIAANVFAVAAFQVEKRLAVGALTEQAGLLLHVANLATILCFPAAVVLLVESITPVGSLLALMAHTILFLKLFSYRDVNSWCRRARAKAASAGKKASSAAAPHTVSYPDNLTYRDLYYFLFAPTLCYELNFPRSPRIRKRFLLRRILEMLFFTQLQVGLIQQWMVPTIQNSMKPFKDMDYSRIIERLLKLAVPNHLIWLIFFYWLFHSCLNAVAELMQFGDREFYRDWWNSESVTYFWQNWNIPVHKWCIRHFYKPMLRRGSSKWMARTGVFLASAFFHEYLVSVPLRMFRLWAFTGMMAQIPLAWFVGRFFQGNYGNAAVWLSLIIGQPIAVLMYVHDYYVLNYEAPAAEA

[17] = biological target: T2, Diacylglycerol O-acyltransferase 1 (Mus musculus, UniProt Q9Z2A7); assay: Inhibition of mouse DGAT1 expressed in Sf9 insect cells using 1,2-dioleoyl-sn-glycerol and [14C]-palmitoyl-CoA substrate by scintillation counting analysis
T2 sequence (Q9Z2A7 whole entry): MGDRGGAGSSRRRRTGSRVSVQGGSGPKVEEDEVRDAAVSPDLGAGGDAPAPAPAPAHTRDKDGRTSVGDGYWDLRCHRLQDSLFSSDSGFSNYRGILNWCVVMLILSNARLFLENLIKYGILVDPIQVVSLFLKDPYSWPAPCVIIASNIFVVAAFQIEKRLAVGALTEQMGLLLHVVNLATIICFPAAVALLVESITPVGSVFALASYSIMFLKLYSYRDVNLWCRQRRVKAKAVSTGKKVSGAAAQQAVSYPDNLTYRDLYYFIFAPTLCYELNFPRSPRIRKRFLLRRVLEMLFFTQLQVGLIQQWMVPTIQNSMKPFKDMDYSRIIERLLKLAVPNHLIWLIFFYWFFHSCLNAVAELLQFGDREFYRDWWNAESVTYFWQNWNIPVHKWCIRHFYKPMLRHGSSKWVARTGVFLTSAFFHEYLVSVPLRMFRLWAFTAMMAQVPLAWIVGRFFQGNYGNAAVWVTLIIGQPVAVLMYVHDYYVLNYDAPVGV

[18] = Solubility in plasma (unknown origin) at pH 7; format: ADME, cell-free
Mus musculus [19] = assay: Reduction in triglycerides level in mouse at 3 mg/kg, po after 12 hrs by postprandial triglyceride assay; format: functional
[20] = Plasma protein binding in human; format: ADME, cell-free; details: read-out: PPB
[21] = Plasma protein binding in mouse; format: ADME; details: read-out: PPB
Mus musculus [22] = assay: Induction of weight loss in diet-induced obese C57BL/6J mouse assessed as decrease in body weight at 30 mg/kg, po qd measured during 11 day chronic study; format: functional; details: 264 h
Mus musculus [23] = assay: Induction of weight loss in diet-induced obese C57BL/6J mouse assessed as reduction in food intake at 30 mg/kg, po qd measured during 1 to 4 days; format: functional, organism-based; set-up: dose 30 mg/kg
Cannabinoid receptor 1 = Cannabinoid receptor 1 (Homo sapiens, UniProt P21554); assay: Inhibition of CB1 receptor (unknown origin)
Cannabinoid receptor 1, sequence (P21554 whole entry): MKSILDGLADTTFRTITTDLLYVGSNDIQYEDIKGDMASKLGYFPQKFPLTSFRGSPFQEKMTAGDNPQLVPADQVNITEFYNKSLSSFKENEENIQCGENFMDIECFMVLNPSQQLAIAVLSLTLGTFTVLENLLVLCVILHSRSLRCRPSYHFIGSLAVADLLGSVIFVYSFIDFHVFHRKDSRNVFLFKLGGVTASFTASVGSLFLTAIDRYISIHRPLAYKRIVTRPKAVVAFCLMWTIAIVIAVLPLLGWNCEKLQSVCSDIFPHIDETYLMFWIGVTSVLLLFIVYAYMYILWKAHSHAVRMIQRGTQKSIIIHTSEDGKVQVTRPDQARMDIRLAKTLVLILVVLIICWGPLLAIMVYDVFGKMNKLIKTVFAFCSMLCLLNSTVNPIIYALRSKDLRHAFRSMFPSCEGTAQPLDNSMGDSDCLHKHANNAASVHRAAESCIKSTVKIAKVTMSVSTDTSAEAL

[24] = Inhibition of CCK receptor (unknown origin); set-up: species or system Homo sapiens
D(2) dopamine receptor = D(2) dopamine receptor (Homo sapiens, UniProt P14416); assay: Inhibition of D2 receptor (unknown origin)
D(2) dopamine receptor, sequence (P14416 whole entry): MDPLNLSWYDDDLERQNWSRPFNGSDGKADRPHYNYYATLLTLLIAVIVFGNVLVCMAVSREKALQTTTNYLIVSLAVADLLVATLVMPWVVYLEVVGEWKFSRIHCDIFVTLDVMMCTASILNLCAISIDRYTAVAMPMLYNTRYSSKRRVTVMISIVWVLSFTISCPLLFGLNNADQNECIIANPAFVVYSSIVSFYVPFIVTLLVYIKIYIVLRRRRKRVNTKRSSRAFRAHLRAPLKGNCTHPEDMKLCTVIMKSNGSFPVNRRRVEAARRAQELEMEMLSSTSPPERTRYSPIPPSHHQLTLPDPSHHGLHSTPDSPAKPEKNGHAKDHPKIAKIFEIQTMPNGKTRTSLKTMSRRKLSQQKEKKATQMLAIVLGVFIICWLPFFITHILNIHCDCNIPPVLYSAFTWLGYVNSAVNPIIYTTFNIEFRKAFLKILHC

[25] = Inhibition of histamine receptor (unknown origin); set-up: species or system Homo sapiens
[26] = Inhibition of serotonin receptor (unknown origin); set-up: species or system Homo sapiens
[27] = Inhibition of neuropeptide Y receptor (unknown origin); set-up: species or system Homo sapiens
[28] = Inhibition of purinergic receptor (unknown origin); set-up: species or system Homo sapiens
Caspase-8 = Caspase-8 (Homo sapiens, UniProt Q14790); assay: Inhibition of CASP8 (unknown origin)
Caspase-8, sequence (Q14790 217-374 limits assumed): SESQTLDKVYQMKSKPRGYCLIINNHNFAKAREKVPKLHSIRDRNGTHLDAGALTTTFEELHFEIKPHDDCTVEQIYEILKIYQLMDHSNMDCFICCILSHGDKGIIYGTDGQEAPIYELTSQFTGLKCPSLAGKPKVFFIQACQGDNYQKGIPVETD
Caspase-8, sequence (Q14790 385-479 limits assumed): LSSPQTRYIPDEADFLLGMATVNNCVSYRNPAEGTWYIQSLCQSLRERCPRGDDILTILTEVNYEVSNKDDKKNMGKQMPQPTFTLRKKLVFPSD

Caspase-9 = biological target: T3, Caspase-9 (Homo sapiens, UniProt P55211); assay: Inhibition of CASP9 (unknown origin)
T3 sequence (P55211 whole entry): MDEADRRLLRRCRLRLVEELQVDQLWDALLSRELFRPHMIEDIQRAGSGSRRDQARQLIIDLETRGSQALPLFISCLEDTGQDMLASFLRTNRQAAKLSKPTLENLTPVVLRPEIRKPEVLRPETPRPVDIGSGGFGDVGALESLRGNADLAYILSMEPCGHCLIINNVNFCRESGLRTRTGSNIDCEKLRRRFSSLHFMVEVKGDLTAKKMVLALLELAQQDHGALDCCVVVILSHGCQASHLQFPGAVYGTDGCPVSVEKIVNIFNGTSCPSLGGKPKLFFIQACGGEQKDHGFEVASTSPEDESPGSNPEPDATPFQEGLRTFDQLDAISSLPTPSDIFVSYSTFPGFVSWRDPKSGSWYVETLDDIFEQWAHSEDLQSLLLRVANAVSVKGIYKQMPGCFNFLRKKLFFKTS

[29] = biological target: Epidermal growth factor receptor (Homo sapiens, UniProt P00533); assay: Inhibition of EGF receptor (unknown origin)
Epidermal growth factor receptor, sequence (P00533 whole entry): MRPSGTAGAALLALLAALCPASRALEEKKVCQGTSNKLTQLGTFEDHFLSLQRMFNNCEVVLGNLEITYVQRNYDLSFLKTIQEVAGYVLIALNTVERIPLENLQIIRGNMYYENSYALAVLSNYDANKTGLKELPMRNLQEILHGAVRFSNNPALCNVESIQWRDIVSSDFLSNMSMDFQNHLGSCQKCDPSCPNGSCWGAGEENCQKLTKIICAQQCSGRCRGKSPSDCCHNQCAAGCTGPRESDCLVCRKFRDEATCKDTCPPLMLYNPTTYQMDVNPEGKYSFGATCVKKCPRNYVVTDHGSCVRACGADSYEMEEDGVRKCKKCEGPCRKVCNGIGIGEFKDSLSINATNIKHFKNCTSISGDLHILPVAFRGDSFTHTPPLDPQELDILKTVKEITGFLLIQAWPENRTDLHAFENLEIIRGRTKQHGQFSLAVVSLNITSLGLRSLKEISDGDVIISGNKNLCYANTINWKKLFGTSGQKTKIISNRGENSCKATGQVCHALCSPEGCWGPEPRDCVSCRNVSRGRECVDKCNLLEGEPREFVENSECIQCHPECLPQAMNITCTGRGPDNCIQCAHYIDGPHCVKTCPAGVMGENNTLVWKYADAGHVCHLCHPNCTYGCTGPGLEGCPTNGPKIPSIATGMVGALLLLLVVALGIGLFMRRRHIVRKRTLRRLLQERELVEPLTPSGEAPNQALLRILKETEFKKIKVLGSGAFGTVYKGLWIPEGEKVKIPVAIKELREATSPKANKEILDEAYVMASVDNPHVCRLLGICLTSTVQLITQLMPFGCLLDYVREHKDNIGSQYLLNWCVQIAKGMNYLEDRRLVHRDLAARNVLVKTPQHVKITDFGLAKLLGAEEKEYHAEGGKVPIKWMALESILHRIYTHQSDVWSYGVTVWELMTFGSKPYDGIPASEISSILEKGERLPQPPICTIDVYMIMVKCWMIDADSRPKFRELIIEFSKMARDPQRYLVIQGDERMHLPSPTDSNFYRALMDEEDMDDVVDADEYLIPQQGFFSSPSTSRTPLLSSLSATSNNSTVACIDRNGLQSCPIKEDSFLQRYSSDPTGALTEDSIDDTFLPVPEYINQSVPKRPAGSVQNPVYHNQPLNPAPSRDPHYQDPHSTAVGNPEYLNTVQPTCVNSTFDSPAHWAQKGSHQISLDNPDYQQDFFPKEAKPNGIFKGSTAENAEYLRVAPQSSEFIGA

Insulin receptor = Insulin receptor (Homo sapiens, UniProt P06213); assay: Inhibition of insulin receptor (unknown origin)
Insulin receptor, sequence (P06213 28-758 limits assumed): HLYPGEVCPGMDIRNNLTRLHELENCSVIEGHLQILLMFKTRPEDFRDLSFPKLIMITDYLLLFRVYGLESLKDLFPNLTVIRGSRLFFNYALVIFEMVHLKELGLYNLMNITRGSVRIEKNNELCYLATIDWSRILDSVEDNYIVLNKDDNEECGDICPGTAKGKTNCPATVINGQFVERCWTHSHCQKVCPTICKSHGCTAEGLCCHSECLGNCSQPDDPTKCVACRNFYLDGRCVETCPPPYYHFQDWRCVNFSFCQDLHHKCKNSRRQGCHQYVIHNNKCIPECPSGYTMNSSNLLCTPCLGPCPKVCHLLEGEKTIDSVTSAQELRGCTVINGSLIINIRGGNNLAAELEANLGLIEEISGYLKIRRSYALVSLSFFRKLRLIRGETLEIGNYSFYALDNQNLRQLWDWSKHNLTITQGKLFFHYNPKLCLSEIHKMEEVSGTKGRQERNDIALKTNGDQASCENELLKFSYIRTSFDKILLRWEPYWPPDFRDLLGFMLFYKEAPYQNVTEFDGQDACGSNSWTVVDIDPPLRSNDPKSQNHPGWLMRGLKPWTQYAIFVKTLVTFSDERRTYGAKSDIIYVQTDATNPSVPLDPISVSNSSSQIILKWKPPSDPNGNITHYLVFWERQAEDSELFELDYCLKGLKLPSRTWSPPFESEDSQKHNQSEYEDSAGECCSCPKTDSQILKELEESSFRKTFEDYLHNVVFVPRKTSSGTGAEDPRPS
Insulin receptor, sequence (P06213 763-1382 limits assumed): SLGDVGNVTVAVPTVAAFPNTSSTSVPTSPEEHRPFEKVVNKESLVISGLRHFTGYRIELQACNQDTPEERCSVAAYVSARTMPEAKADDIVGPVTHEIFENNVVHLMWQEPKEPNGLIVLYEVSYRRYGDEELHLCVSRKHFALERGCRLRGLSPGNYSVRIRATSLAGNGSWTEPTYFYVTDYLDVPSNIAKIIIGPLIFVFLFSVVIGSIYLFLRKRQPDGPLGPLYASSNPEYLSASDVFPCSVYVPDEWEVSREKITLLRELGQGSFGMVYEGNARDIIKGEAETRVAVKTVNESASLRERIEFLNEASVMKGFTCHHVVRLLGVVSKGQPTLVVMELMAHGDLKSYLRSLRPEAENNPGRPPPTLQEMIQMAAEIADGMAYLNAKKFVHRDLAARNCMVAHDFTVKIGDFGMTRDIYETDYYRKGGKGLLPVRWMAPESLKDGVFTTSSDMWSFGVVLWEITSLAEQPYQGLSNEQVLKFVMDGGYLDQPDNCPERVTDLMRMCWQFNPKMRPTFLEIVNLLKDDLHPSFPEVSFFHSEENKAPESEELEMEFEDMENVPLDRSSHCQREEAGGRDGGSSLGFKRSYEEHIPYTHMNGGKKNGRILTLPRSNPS

Prostacyclin receptor = Prostacyclin receptor (Homo sapiens, UniProt P43119); assay: Inhibition of prostanoid IP receptor (unknown origin)
Prostacyclin receptor, sequence (P43119 whole entry): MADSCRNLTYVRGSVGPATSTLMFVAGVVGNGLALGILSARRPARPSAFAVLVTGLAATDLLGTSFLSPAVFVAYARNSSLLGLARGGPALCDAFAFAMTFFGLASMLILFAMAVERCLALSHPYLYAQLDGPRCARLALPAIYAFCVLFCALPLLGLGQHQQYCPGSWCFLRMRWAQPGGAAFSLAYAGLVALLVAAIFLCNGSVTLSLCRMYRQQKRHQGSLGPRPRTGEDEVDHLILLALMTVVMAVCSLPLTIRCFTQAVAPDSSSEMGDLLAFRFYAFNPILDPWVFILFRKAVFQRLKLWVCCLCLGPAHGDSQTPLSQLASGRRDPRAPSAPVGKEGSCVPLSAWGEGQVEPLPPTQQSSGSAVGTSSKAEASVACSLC

[30] = AUC in rat at 10 mg/kg, po; format: ADME, organism-based; set-up: dose 10 mg/kg, route oral; details: plasma
[31] = AUC in mouse at 1 mg/kg, po; format: ADME, organism-based; set-up: dose 1 mg/kg, route oral; details: plasma
[32] = AUC in dog at 2 mg/kg, po; format: ADME, organism-based, Canis lupus familiaris; set-up: dose 2 mg/kg, route oral; details: plasma
[33] = AUC in monkey at 3 mg/kg, po; format: ADME, organism-based, Macaca mulatta; set-up: dose 3 mg/kg, route oral; details: rhesus monkey, plasma
[34] = Clearance in mouse liver hepatocytes measured per million cells; format: ADME, Hepatocyte; details: read-out: CLH
[35] = Clearance in dog liver hepatocytes measured per million cells; format: ADME, Canis lupus familiaris, Hepatocyte; details: read-out: CLH

Structure (SMILES): O=C(Nc1ccc(OC(F)(F)F)cc1)Nc1ccc(-c2ccc(C(=O)[C@@H]3CCC[C@H]3C(=O)O)cc2)cc1F
Activity (Mus musculus [1]): 2%

hepatocyte CLint [2]: 14 µL/min/1e6 cells
Cmax [3]: 9.1 µM
Cmax [4]: 0.6 µM
Cmax [5]: 3.3 µM
Cmax [6]: 5.7 µM
half-life [7]: 3 h
half-life [8]: 6.2 h
half-life [9]: 3 h
half-life [10]: 3 h
bioavailability [11]: 75%
bioavailability [12]: 89%
Papp [13]: 201 nm/s
hepatocyte CLint [14]: 10 µL/min/1e6 cells
CLH (Hepatocyte): 14 µL/min/1e6 cells
IC50 [16]: 0.064 µM
IC50 [17]: 0.044 µM
solubility [18]: 50 µM (≈ 25.6 µg/mL)
fraction unbound [20]: < 0.005
fraction unbound [21]: < 0.005
IC50 (Cannabinoid receptor 1): > 10 µM
IC50 [24]: > 10 µM
IC50 (D(2) dopamine receptor): > 10 µM
IC50 [25]: > 10 µM
IC50 [26]: > 10 µM
IC50 [27]: > 10 µM
IC50 [28]: > 10 µM
IC50 (Caspase-8): 6.8 µM
IC50 (Caspase-9): 5 µM
IC50 [29]: 7.5 µM
IC50 (Insulin receptor): 5.7 µM
IC50 (Prostacyclin receptor): 1 µM
AUC [30]: 41 µM·h
AUC [31]: 3.7 µM·h
AUC [32]: 23 µM·h
AUC [33]: 64 µM·h
hepatocyte CLint [34]: 6.2 µL/min/1e6 cells
hepatocyte CLint [35]: 16 µL/min/1e6 cells
Structure (SMILES): CCc1ccccc1NC(=O)N1C[C@@H](C)Oc2cc(-c3ccc([C@H]4CC[C@H](CC(=O)O)CC4)cc3)ccc21
inhibition in vivo at 3 mg/kg (Mus musculus [15]): 93%
inhibition in vivo at 3 mg/kg (Mus musculus [19]): 87%
inhibition in vivo at 30 mg/kg (Mus musculus [22]): > 5%
Activity (Mus musculus [23]): Active
